Consider four molecules from patent publication EP2687509A2, “Dicarboxyimides derivatives for use in the treatment of cancer” (Warszawski Uniwersytet Medyczny, priority 2012, dated 2014).

Data set [1] deals with K562 cells. Particulars: against K562 cells; for comparison; cited from earlier work.
In data set [2] the test system is murine leukemia, breast cancer and orthotopic models of non-small cell lung cancer and pancreatic cancer. Particulars: cited from earlier work.
For data set [3] the following is noted: higher than for the lead compound amonafide; cited from earlier work.
The conditions of data set [4]: mouse, in vivo; cited from earlier work.
In the next data set the test system is HL60 cells. The experiment in a line: MTT cytotoxicity assay, HL60 cells. As to conditions: Homo sapiens, HL-60, 48 h, 48 h incubation. The data set is classed as cell-based. Here is the method: (§1) A series of dicarboximides derivatives (table 1) was tested for cytotoxic properties against four cell lines. The tests were conducted by means of MTT assay where yellow tetrazole salt was processed by the dehydrogenases in mitochondria of live cells into violet formazan. The following cell lines were used:
- HL60 cells (human acute myelogenous leukaemia)
(§2) 1. HeLa, K562, HL60, HUVEC cells in an amount of 7 thousand cells / well (in 200 µL medium) were seeded in 96-well plates. Cells were incubated overnight in an incubator (37°C, 5% CO2)
(§3) 2. Test compounds were dissolved in DMSO and added in an amount of 2µL to the surface of the cells to give the following final concentrations in the cell culture (1 mM, 10 µm, 100 nM, 1 nM). As a control, cells exposed to 1% DMSO were used.
(§4) 3. Cytotoxicity of the test compounds was evaluated by MTT test. After 48-hour incubation of HeLa, K562, HL60 or HUVEC cells with the test compounds, MTT (5mg/mL) was added in an amount of 25µL/well. MTT, a yellow tetrazolium salt was reduced to purple formazan by mitochondrial dehydrogenases of living cells. The amount of formazan could be determined spectrophotometrically and was proportional to the number of live cells. Cells were incubated with MTT for 2 hours in an incubator (37°C, 5% CO2). Next, lysis buffer containing SDS and DMF was added (95µL/well) to each well and incubated overnight at 37°C, 5% CO2.
(§5) 4. The plates were analyzed by reading the absorbance at a wavelength of 570 nm and 650 nm using the plate-reader Fluostar Omega. The measured absorbance at 570 nm is proportional to the number of living cells. IC50 values (concentration of compound causing 50% cell mortality) were read from the charts by interpolation to 50% cell survival.
In general terms: Tetrazolium dyes change colour on reduction, which living cells bring about.

Another data set concerns HeLa cells. Kind of data set: MTT cytotoxicity assay, HeLa cells. As to conditions: Homo sapiens, 48 h incubation, * = compound precipitated at 1 mM from cell cultures. Type of data set: cell-based. Here is the method:
as §1
- HeLa cells (uterine cervix cancer)
as §2, §3, §4, §5

For the next data set, the system named is caspase 3 and 7. Kind of data set: Apo-ONE Homogeneous Caspase-3/7 Assay in K562 cells. As to conditions: 5 x IC50 (a5: 10 µM), 18 hours, compared with K562 and K562+DMSO, Fig. 1. The data set is classed as cell-based, human. The method, then: The observed cytotoxicity of compounds a3-7 was tested for its origin, i.e. induction of necrosis or apoptosis in the K562 cells of chronic myelogenous leukaemia.
K562 cells in RPMI 1640 medium containing 10% fetal calf serum and antibiotics were seeded on 96-well plate in an amount of 20x10^3 cells / well. Cells were cultured for 24 hours in an incubator (5% CO2, 37°C).
Compounds a3-a7 were dissolved in DMSO and added to the cell medium; final concentration in the cell culture was 5 x IC50. Cells cultured in the presence of 1% DMSO served as a negative control. Cells grown in the presence of 1 µM staurosporin (a strong inducer of apoptosis) served as a positive control. […]
The activity of caspase 3 and 7 was determined by means of Apo-ONE® Homogeneous Caspase-3/7 Assay (Promega, Madison, WI, USA), in compliance with manufacturer's guidelines. Cells were lysed and incubated with a profluorescent substrate for caspases for 1.5 hours at room temperature. Due to proteolytic activity of caspases, the profluorescent substrate was converted into a fluorescent product the amount of which could be determined by measurement of fluorescence intensity.
The fluorescence intensity in each well was measured using a plate reader Fluostar Omega (BMG-Labtech, Germany) at an excitation wavelength of 485 nm and emission 520 nm. The intensity of fluorescence is proportional to the activity of caspase 3 and 7 in the sample.

The next data set deals with HUVEC cells. Kind of data set: MTT cytotoxicity assay, HUVEC cells. Type of data set: cell-based. As to conditions: Homo sapiens, 48 h incubation, * = compound precipitated at 1 mM from cell cultures. Here is the method: as §1
- HUVEC cells (normal human endothelial cells).
as §2, §3, §4, §5

Data set [5] has as its system K562 cells. Kind of data set: MTT cytotoxicity assay, K562 cells. The data set is classed as cell-based, human. Particulars: 48 h incubation, * = compound precipitated at 1 mM from cell cultures. Here is the method: as §1
- K562 cells (human chronic myelogenous leukaemia) and
as §2, §3, §4, §5

The test system of data set [6] is tumor cell lines (leukemia, breast cancer, neuroblastoma, colorectal cancer, liver, prostate, lung). As to conditions: 13 tested tumor cell lines; cited from earlier work.
In the next data set the test system is caspase-3. As to conditions: MOLT-4 cells; 5µM; after 12 hours of incubation; cited from earlier work.
In data set [7] the test system is peripheral blood lymphocytes. As to conditions: normal cells (peripheral blood lymphocytes); cited from earlier work.
The subject of a further data set is caspase-6. As to conditions: MOLT-4 cells; 5µM; after 24 hours of incubation; cited from earlier work.

Like-named read-outs stand apart in the source and are kept apart here. Where only a bound is given, the exact number is not on record here.

A word on the IC50: it is the point on the concentration scale where inhibition reaches its midpoint.

With `N.N.[Cl][Pt][Cl]` [cis-platinum], the IC50 result in the data set on K562 cells [1] is “several to several dozens”.
Take `CN(C)CCN1C(=O)c2cccc3cc(NC(=O)NC(=O)C(Cl)(Cl)Cl)cc(c23)C1=O` [UNBS3157, 2,2,2-trichloro-N-({2-[2-(dimethylamino)ethyl]-1,3-dioxo-2,3-dihydro-1H-benzo[de]izoquinolino-5-ylo}carbamoylo)acetamide]: in data set [2], the “activity in in vivo models compared to amonafide” value is listed as “enhanced activity”. Moreover, in data set [3], the “maximum tolerated dose relative to amonafide” value is “about 4 x”. Also, the haemotoxicity result in data set [4] is reported as “no haemotoxicity”.
In the case of `CCC12C(=O)C(CC)(C(c3ccccc3)=C1c1ccccc1)C1C(=O)N(CCN(C)C)C(=O)C12` (centres unmarked) [a3], the IC50 with HL60 cells was 1 to 10 µM; in the data set on HL60 cells (* = compound precipitated at 1 mM from cell cultures) it was above 1000 µM; in the data set with HeLa cells, above 1000 µM; in the data set with HUVEC cells, above 1000 µM; with K562 cells [5], 10 µM. Moreover, the “activity of caspase 3 and 7” value with caspase 3 and 7 is reported as “do not increase”.
Regarding `O=C1c2cccc3c([N+](=O)[O-])ccc(c23)C(=O)N1CCCO` [6-nitro-2-(3-hydroxypropyl)-1H-benz[de]izoquinolino-1,3-dione], the “tested tumor cell lines to which the compound was toxic” value in [6] is 8 of 13. In the data set on caspase-3, the caspase-3 activity result is recorded as “significant increase”. In [7], the IC50 was 273 µM. In the data set with caspase-6, the caspase-6 activity result is “significant increase”.
